According to patent US6689767B2, “Triterpenes having antibacterial activity” (Regents of the University of Minnesota, priority 2000, dated 2004):

Experiments:
[1] = system: Staphylococcus epidemidis; experiment: Kirby-Bauer disk diffusion of lupeol derivatives, Staphylococcus epidermidis; assay type: cell-based
Procedure: (§1) Derivatives of lupeol were tested for inhibition of bacterial growth using the Kirby-Bauer disk diffusion method and by growth in liquid culture. For the disk diffusion method, compounds were dissolved in DMSO and 100 μl was added to the 10 mm filter paper disk. The amount of compound applied to the disk varied. The amount applied for each compound was as follows: lupeol (50 μg), lupeol-3-maleate (15 μg), lupeol-3-thiodiglycolate (15 μg), lupeol-3-dimethyl succinate (60 μg), lupeol-3-phosphate (30 μg), lupenone (50 μg), lupenon-3-oxime (50 μg), lupeol-3-amine (50 μg), lupenon-1,2-ene-2-ol (50 μg). In liquid culture, the compounds were dissolved in DMSO at 1 mg/ml and then 100 μl was added to 7 ml of sterile broth, along with a 1/200 dilution of freshly grown bacterial liquid culture.

Enterococcus faecalis = experiment: Kirby-Bauer disk diffusion of lupeol derivatives, Enterococcus faecalis; assay type: cell-based
Procedure: as §1

Staphylococcus aureus [2] = experiment: Kirby-Bauer disk diffusion growth inhibition, Staphylococcus aureus; assay type: cell-based; conditions: for Zone of inhibition (mm) against S. aureus: Example 35; for Zone of inhibition Staphylococcus aureus: 100 μl on 10 mm disk, 18 hours 37° C.; for Active against: Table 1 summary, S. aureus
Procedure: (§2) The compounds disclosed herein were tested for growth inhibition against four strains of bacteria: Escherichia coli, Staphylococcus aureus, methicillin-resistant Staphylococcus aureus, and Bacillus subtilis. […] They represent […]. E. coli is a gram-negative, non-spore forming, rod-shaped, opportunistic pathogen that resides in the human digestive tract. S. aureus is a gram positive coccus, is usually found morphologically as a […], and is an opportunistic human pathogen, often residing on or in the skin. B. subtilis is a gram positive spore-forming rod. Its native environment is the soil. The chemicals were tested for growth-inhibition of the bacteria by the Kirby-Bauer method. See, e.g., Microbiology, third edition; Lansing M. Prescott, John P. Harley, and Donald A. Klein; Wm. C. Brown Publishers.
(§3) Mueller-Hinton agar (Difco Lab, Michigan) was prepared according to the manufacturer's directions, and 20 ml was dispensed in each sterile petri dish. Sterile nutrient broth (Difco Lab, Michigan) was also prepared according to the manufacturer's directions.
(§4) Bacteria were grown in liquid nutrient broth for 18 hours at 37° C. until they were turbid.
(§5) An aliquot of 0.5 ml of cultured bacteria was aseptically transferred to the surface of a Mueller-Hinton agar plat, and spread using a cotton-tipped swab. Plates were then allowed to dry for 5 minutes. Then a 10 mm diameter filter paper disk impregnated with the test chemical was placed with sterile forceps on the plate. The disks were impregnated with 100 μl of a solution of the test compound in DMSO or in water, at the indicated concentrations in Table 1.
(§6) The zones of inhibition were measured after 18 hours growth at 37° C. Tests were done in triplicate.
(§7) Additional compounds were tested for activity against E. coli, laboratory strain S. aureus (not methicillin resistant), and B. subtilis. The compounds were tested by the disk diffusion method, as in Example 1, with application of a 10 mg/mil solution of the test compound in DMSO.
as §1

bacteria = experiment: Summary statements over the antibacterial assays above; assay type: cell-based; conditions: summary list
Bacillus subtilis = experiment: Kirby-Bauer disk diffusion growth inhibition, Bacillus subtilis; assay type: cell-based; conditions: for Zone of inhibition Bacillus subtilis: 100 μl on 10 mm disk, 18 hours 37° C.
Procedure: as §2, §3, §4, §5, §6, §7

Escherichia coli = experiment: Kirby-Bauer disk diffusion growth inhibition, Escherichia coli; assay type: cell-based; conditions: for Zone of inhibition Escherichia coli: 100 μl on 10 mm disk, 18 hours 37° C.; for sensitivity of E. coli: Example 34, 10 mg/ml in DMSO; for Active against: Table 1 summary, E. coli
Procedure: as §2, §3, §4, §5, §6, §7

Staphylococcus epidermis = experiment: Growth in liquid culture, optical density, S. epidermidis; assay type: cell-based, Staphylococcus epidermidis; conditions: 600 nm, 24 hours growth, test compound at 14 μg per ml; None = 0.07
Procedure: as §1

Enterococcus faecilis = experiment: Growth in liquid culture, optical density, E. faecalis; assay type: cell-based, Enterococcus faecalis; conditions: 600 nm, 24 hours growth, test compound at 14 μg per ml; None = 0.85
Procedure: as §1

Staphylococcus aureus [3] = experiment: Growth in liquid culture, optical density, S. aureus; assay type: cell-based; conditions: 600 nm, 24 hours growth, test compound at 14 μg per ml; None = 0.08
Procedure: as §1

[4] = reference antibiotic, amount on disk not stated
[5] = 50 μg applied to 10 mm disk in DMSO

CC1(C)S[C@@H]2[C@H](NC(=O)[C@H](N)c3ccccc3)C(=O)N2[C@H]1C(=O)O [Ampicillin, reference compound]
Zone of inhibition (mm) against S. epiderm. [1, 4]: 2 mm
Zone of inhibition (mm) against E. faecalis (Enterococcus faecalis; [4]): 5.75 mm
Zone of inhibition (mm) against S. aureus (Staphylococcus aureus [2]; [4]): 6.1 mm

C=C(C)[C@@H]1CC[C@]2(COC(=O)CN)CC[C@]3(C)[C@H](CC[C@@H]4[C@@]5(C)CC[C@H](OC(=O)CN)C(C)(C)[C@@H]5CC[C@]43C)[C@@H]12 [Betulin 3,28-diglycine, Betulin-3,28-diglycine]
active against at least one strain of bacteria in the assays above (bacteria): active against at least one strain of bacteria
Zone of inhibition Bacillus subtilis (Bacillus subtilis; 125 ng/ml in water): 0 mm
Zone of inhibition Escherichia coli (Escherichia coli; 125 ng/ml in water): 0 mm
sensitivity of E. coli (Escherichia coli): sensitive
Active against (Escherichia coli): E. coli
Zone of inhibition Staphylococcus aureus (Staphylococcus aureus [2]; 125 ng/ml in water): 0 mm

C=C(C)C1CCC2(COC(=O)CCC(=O)O)CC[C@@]3(C)C(CCC4[C@@]5(C)CCC(OC(=O)CCC(=O)O)C(C)(C)C5CC[C@]43C)C12 (some centres unmarked) [Betulin 3,28-disuccinate, Betulin-3,28-disuccinate]
active against at least one strain of bacteria in the assays above (bacteria): active against at least one strain of bacteria
Zone of inhibition Bacillus subtilis (Bacillus subtilis; 1 mg/ml in DMSO): 0 mm
Zone of inhibition Escherichia coli (Escherichia coli; 1 mg/ml in DMSO): 0 mm
Zone of inhibition Staphylococcus aureus (Staphylococcus aureus [2]; 1 mg/ml in DMSO): 0 mm

C=C(C)[C@@H]1CC[C@]2(COC(=O)[C@@H](N)C(C)C)CC[C@]3(C)[C@H](CC[C@@H]4[C@@]5(C)CC[C@H](OC(=O)[C@@H](N)C(C)C)C(C)(C)[C@@H]5CC[C@]43C)[C@@H]12 [Betulin-3,28-Di-L-valine ester, Betulin-3,28-di-L-valine]
active against at least one strain of bacteria in the assays above (bacteria): active against at least one strain of bacteria
sensitivity of S. aureus (Staphylococcus aureus [2]; Example 34, 10 mg/ml in DMSO): sensitive
Active against (Staphylococcus aureus [2]): S. aureus

C=C(C)[C@@H]1CC[C@]2(CO)CC[C@]3(C)[C@H](CC[C@@H]4[C@@]5(C)CC[C@H](OC(=O)/C=C/c6ccc(O)c(O)c6)C(C)(C)[C@@H]5CC[C@]43C)[C@@H]12 [Betulin-3-caffeate]
active against at least one strain of bacteria in the assays above (bacteria): active against at least one strain of bacteria
sensitivity of E. coli (Escherichia coli): sensitive
Active against (Escherichia coli): E. coli

C=C(C)C1CCC2(COC(=O)COCC(=O)O)CCC3(C)C(CCC4C5(C)CCC(O)C(C)(C)C5CCC43C)C12 (centres unmarked) [Betulin-28-diglycolate]
active against at least one strain of bacteria in the assays above (bacteria): active against at least one strain of bacteria
sensitivity of E. coli (Escherichia coli): sensitive
Active against (Escherichia coli): E. coli

O=C(N[C@H](CO)[C@H](O)c1ccc([N+](=O)[O-])cc1)C(Cl)Cl [Chloramphenicol, reference compound]
Zone of inhibition (mm) against S. epiderm. [1, 4]: 0.5 mm
Zone of inhibition (mm) against E. faecalis (Enterococcus faecalis; [4]): 1.25 mm
Zone of inhibition (mm) against S. aureus (Staphylococcus aureus [2]; [4]): 2.6 mm

C=C(C)[C@@H]1CC[C@]2(C)CC[C@]3(C)[C@H](CC[C@@H]4[C@@]5(C)CCC(=NO)C(C)(C)[C@@H]5CC[C@]43C)[C@@H]12 [Lupenon oxime, Lupenon-3-oxime]
active against at least one strain of bacteria in the assays above (bacteria): active against at least one strain of bacteria
Zone of inhibition (mm) against S. epiderm. [1, 5]: 0 mm
Optical Density of S. epiderm (Staphylococcus epidermis): 0.06
Zone of inhibition (mm) against E. faecalis (Enterococcus faecalis; [5]): 0.6 mm
Active against (Enterococcus faecalis; Table 1 summary, E. faecalis): E. faecalis
Zone of inhibition (mm) against S. aureus (Staphylococcus aureus [2]; [5]): 0.4 mm
Active against (Staphylococcus aureus [2]): S. aureus,
Optical Density of E. faecalis (Enterococcus faecilis): 0.45
Optical Density of S. aureus (Staphylococcus aureus [3]): 0.06

[H]/N=C(/N)N[C@H]1[C@H](O)[C@@H](O)[C@H](O[C@@H]2O[C@@H](C)[C@](O)(C=O)[C@H]2O[C@@H]2O[C@@H](CO)[C@H](O)[C@@H](O)[C@@H]2NC)[C@@H](N/C(N)=N\[H])[C@@H]1O [Streptomycin, reference compound]
Zone of inhibition (mm) against S. epiderm. [1, 4]: 0 mm
Zone of inhibition (mm) against E. faecalis (Enterococcus faecalis; [4]): 0 mm
zone of inhibition at 10 µg/disc (Bacillus subtilis; Bacillus subtilis, control antibiotic, 10 mcg): 24 mm
zone of inhibition at 10 µg/disc (Escherichia coli; Escherichia coli, control antibiotic, 10 mcg): 20 mm
Zone of inhibition (mm) against S. aureus (Staphylococcus aureus [2]; [4]): 1.25 mm
zone of inhibition at 10 µg/disc (Staphylococcus aureus [2]; Staphylococcus aureus, control antibiotic, 10 mcg): 15 mm
amount applied to the disk required for inhibition of S. aureus (Staphylococcus aureus [2]; disk diffusion assay, laboratory strain (not methicillin resistant)): 10 µg

Allobetulin 2-valine-ester
Zone of inhibition Bacillus subtilis (Bacillus subtilis; 125 ng/ml in water): 0 mm
Zone of inhibition Escherichia coli (Escherichia coli; 125 ng/ml in water): 0 mm
Zone of inhibition Staphylococcus aureus (Staphylococcus aureus [2]; 125 ng/ml in water): 0 mm

Allobetulin ethanol amine
Zone of inhibition Bacillus subtilis (Bacillus subtilis; 125 ng/ml in water): 0 mm
Zone of inhibition Escherichia coli (Escherichia coli; 125 ng/ml in water): 0 mm
Zone of inhibition Staphylococcus aureus (Staphylococcus aureus [2]; 125 ng/ml in water): 0 mm

Allobetulin glycine
Zone of inhibition Bacillus subtilis (Bacillus subtilis; 125 ng/ml in water): 0 mm
Zone of inhibition Escherichia coli (Escherichia coli; 125 ng/ml in water): 0 mm
Zone of inhibition Staphylococcus aureus (Staphylococcus aureus [2]; 125 ng/ml in water): 0 mm

Allobetulin-3-phthalate [Allobetulin 3-phthalate]
Zone of inhibition Bacillus subtilis (Bacillus subtilis; 125 ng/ml in water): 0 mm
Zone of inhibition Escherichia coli (Escherichia coli; 125 ng/ml in water): 0 mm
Zone of inhibition Staphylococcus aureus (Staphylococcus aureus [2]; 125 ng/ml in water): 0 mm

Allobetulin-3-poly (ethylene glycol) bis (carboxymethyl) ether ester
Zone of inhibition Bacillus subtilis (Bacillus subtilis; 125 ng/ml in water): 0 mm
Zone of inhibition Escherichia coli (Escherichia coli; 125 ng/ml in water): 0 mm
Zone of inhibition Staphylococcus aureus (Staphylococcus aureus [2]; 125 ng/ml in water): 0 mm

Betulin 3,28-maleate
Zone of inhibition Bacillus subtilis (Bacillus subtilis; 20 mg/ml in DMSO): 0 mm
Zone of inhibition Escherichia coli (Escherichia coli; 20 mg/ml in DMSO): 0 mm
Zone of inhibition Staphylococcus aureus (Staphylococcus aureus [2]; 20 mg/ml in DMSO): 0 mm

Betulin dianiline ester
Zone of inhibition Bacillus subtilis (Bacillus subtilis; 125 ng/ml in water): 0 mm
Zone of inhibition Escherichia coli (Escherichia coli; 125 ng/ml in water): 0 mm
Zone of inhibition Staphylococcus aureus (Staphylococcus aureus [2]; 125 ng/ml in water): 0 mm

Betulin diglycolate
Zone of inhibition Bacillus subtilis (Bacillus subtilis; 125 ng/ml in water): 0 mm
Zone of inhibition Escherichia coli (Escherichia coli; 125 ng/ml in water): 10.0 mm
Zone of inhibition Staphylococcus aureus (Staphylococcus aureus [2]; 125 ng/ml in water): 0 mm

Gentamicin [reference compound]
Zone of inhibition (mm) against S. epiderm. [1, 4]: 0 mm
Zone of inhibition (mm) against E. faecalis (Enterococcus faecalis; [4]): 0 mm
Zone of inhibition (mm) against S. aureus (Staphylococcus aureus [2]; [4]): 0.1 mm

Hederine hydrate
Zone of inhibition Bacillus subtilis (Bacillus subtilis; 0.5 ng/ml in water): 0 mm
Zone of inhibition Escherichia coli (Escherichia coli; 0.5 ng/ml in water): 0 mm
Zone of inhibition Staphylococcus aureus (Staphylococcus aureus [2]; 0.5 ng/ml in water): 0 mm

Poly (ethylene glycol) bis (carboxymethyl) ester
Zone of inhibition Bacillus subtilis (Bacillus subtilis; 125 ng/ml in water): 0 mm
Zone of inhibition Escherichia coli (Escherichia coli; 125 ng/ml in water): 0 mm
Zone of inhibition Staphylococcus aureus (Staphylococcus aureus [2]; 125 ng/ml in water): 0 mm
